# Measured values published in publication PMC1716192, “A Plant-Derived Morphinan as a Novel Lead Compound Active against Malaria Liver Stages” (PLoS Medicine, 2006).
# Columns and labels:
# [1] = tested on: P. yoelii transmissibility (oocysts, sporozoites in A. stephensi); test: Transmissibility to A. stephensi mosquitoes fed on treated mice; format: in vivo; conditions: 200 mg/kg, A. stephensi fed on treated mice (unpublished data)
# Procedure: In order to test for inhibitory activity against P. yoelii blood stages, four groups of five naive mice were inoculated (intraperitoneally) with 10^6 P. yoelii–infected red blood cells on day 0. Three hours later, one group was treated with tazopsine at 100 mg/kg, another with NCP-tazopsine at 200 mg/kg, whereas the other two groups acted as controls (respectively, water and 10% Tween 80). The doses were repeated daily until day +3. For the group treated with NCP- tazopsine and its control group, the animals were anesthetised 2 h following the administration of the last dose (day +3), and placed for 30 min over a cage with 100 female laboratory-bred A. stephensi. Oocysts were enumerated in 30 mosquito midguts dissected 8 d later, and the number of sporozoites in the salivary glands dissected from 30 insects was ascertained a further 7 d later. All the experiments were performed in two independent duplicates, and enumeration of parasites in blood smears and mosquitoes was conducted in a blinded fashion.
# [2] = tested on: P. yoelii liver stage parasites (18S rRNA); test: Real-time PCR quantification of P. yoelii parasites in mouse livers; format: in vivo, Swiss mice; conditions: 42 h PI
# Procedure: Female 6-wk-old Swiss mice weighing 24–31 g were randomly allotted to three groups. The drug to be tested was administrated orally on days −1, 0, and +1. Group 1 received 100 mg/kg/d of NCP-tazopsine (n = 4), group 2 received 200 mg/kg/d of NCP-tazopsine (n = 6), whereas the control group received Tween 80 at 10% in sterile water (n = 5). Mice were challenged on day 0 by retro-orbital injection with 120,000 P. yoelii sporozoites and sacrificed 42-h postinoculation. A piece of liver (0.2 g) was harvested and total RNA extracted using the Micro to Midi kit (Invitrogen) according to the manufacturer's instructions. The detection and quantification of liver stage parasites were done as described with minor modifications. Five micrograms of total RNA were treated with DNase from the Turbo DNA-free kit (Ambion, Huntingdon, United Kingdom) and reverse transcribed by Superscript II (Invitrogen) according to the manufacturer's instructions. A total of 6 μl of the 300 μl obtained (an equivalent to 100 ng of the starting total RNA) were used per TaqMan PCR assay (MX4000 multiplex quantitative PCR system; Stratagene, La Jolla, California, United States). […] Lack of nonspecific amplification with mouse genomic DNA was determined in preliminary experiment (unpublished data). […] Absolute transcript copy number for each gene was calculated based on their external standard curves. […]
structure (smiles),measurement,setting,value
"COC1=C2[C@@H]3[C@H](O)c4ccc(OC)c(O)c4[C@]2(CCN3C2CCCC2)C[C@H](O)[C@@H]1O [NCP-tazopsine, N-cyclopentyl-tazopsine]",effect on the transmissibility of the parasite,[1],no effect
same,reduction of liver parasite load versus controls,"[2]; fully protective dose (200 mg/kg/d oral), 120,000 sporozoites",99.98%
same,reduction of liver parasite load versus controls,"[2]; suboptimal dose (100 mg/kg/d oral), 120,000 sporozoites",98.58%
